Reference: patent US7206699B2, “Methods for measuring therapy resistance” (Virco N.V., priority 2000, dated 2007)
Where two headings read alike, the source gives them in different places.

Test system: HIV-1
Conditions: for Geometric Mean Phenotype: fold change in IC50 vs wild type; for Average Phenotype (log): log fold change
[1] = RT codon 41 ANY, 184 ANY, 215 ANY, N 13255
[2] = RT codon 41 L, 184 WT, 215 WT, N 54
[3] = RT codon 41 WT, 184 V/I, 215 F/Y, N 673
[4] = RT codon 41 WT, 184 V/I, 215 WT, N 2172
[5] = RT codon 41 WT, 184 WT, 215 WT, N 4826

Description: The whole process can be divided into three phases: molecular biology, transfection and susceptibility testing.
• Viral RNA fragments extracted from patient's blood sample • Complementary DNA (cDNA) of the gag-PR-RT sequence, through to codon 400 formed via reverse transcription • Gag-PT-RT sequence multiplied using two rounds of PCR • Purification of the DNA fragments • Creation of laboratory proviral clone with gag-PR-RT sequence deleted • Insertion of the clone into bacterial plasmids for reproduction of large quantities. Transfection This is the process by which viral genes are transferred to a cell. • 1. The gag-PR-RT sequences from the patient sample and the plasmid fragments are mixed with CD4+, MT4 cells. • 2. Electroporation takes place: the cells are subject to a short (milliseconds), but strong current in a cuvette producing transient openings in the cell membrane, through which both the gag-PR-RT DNA fragment and the plasmid fragment enter. • 3. In a relatively small proportion of the cells, both fragments will meet up and, probably supported by a cellular enzyme, recombine to form a complete HIV-1 genome that can now be converted into infectious virus particles. • 4. The recombinant virus is then grown in this cell culture for approximately 8 days, until the cytopathogenic effect or CPE reaches a sufficient level. • 5. The medium is then centrifuged to separate out the cells and the supernatant contains large quantities of recombinant virus—the virus stock harvest. • 6. The virus is then titrated to achieve a known concentration. Susceptibility Testing
Different concentrations of the antiviral agents are placed in the 384 microwells of a microtiter test plate. Several wells are used for each concentration and the mean results used to increase reliability. • 2. A set dilution of the recombinant virus stock or wild type control virus is added to each microwell. • 3. A set dilution of MT4 cells containing a fluorescent reporter gene system is also added to each microwell. • 4. The plate is incubated for 3 days during which time the recombinant virus will replicate in the MT4 cells unless inhibited by the antiviral drug. Replication triggers the reporter gene, which produces proteins which fluoresce. • 5. The amount of viral replication at each concentration of drug is measured by computerized spectrophotometry, relative to the wild type virus controls. • 6. The susceptibility of the virus to each drug is expressed as a fold change in IC50 relative to wild type virus. • 7.
Plasma samples were obtained from patients and submitted to laboratories for routine assessment of drug susceptibility.

Cc1cn([C@H]2C[C@H](N=[N+]=[N-])[C@@H](CO)O2)c(=O)[nH]c1=O [AZT, zidovudine]
Geometric Mean Phenotype [1]: 3.9 fold | Geometric Mean Phenotype [2]: 1.7 fold | Geometric Mean Phenotype [3]: 6.2 fold | Geometric Mean Phenotype [4]: 1.3 fold | Geometric Mean Phenotype [5]: 1.3 fold | mean fold resistance, increase (genetic clusters with multiple mutations conferring AZT resistance, FIG. 8): ~100 fold | effect of including the 184V mutation together with AZT resistance mutations (genetic clusters with vs without 184V/I, FIG. 8): substantial reduction in the predicted magnitude of AZT resistance | Average Phenotype (log) [1]: 0.59 | Average Phenotype (log) [2]: 0.24 | Average Phenotype (log) [3]: 0.79 | Average Phenotype (log) [4]: 0.10 | Average Phenotype (log) [5]: 0.12 | mean fold resistance of genetic cluster, in words (virus harbouring the 184V mutation, FIG. 8): slightly reduced level of susceptibility
